Values joined by “and” are separate entries in the source; they are usually repeats but may differ in a detail not shown here. Identical values can stand only once. Like-named read-outs stand apart in the source and are kept apart here.
Legend:
hsMTHFRCD-RD [1] = biological target: T1, hsMTHFRCD-RD (Homo sapiens, UniProt P42898); experiment: MIDAS protein-metabolite interactomics (equilibrium dialysis FIA-MS), CD-RD construct; assay type: binding; details: Fig. 2B
T1 construct: encompassing just the CD and RD (amino acids 38–644; hsMTHFRCD-RD); made in house
Experimental: (§1) Protein–metabolite interactomics using an updated MIDAS screening platform was performed as reported previously. Briefly, a flow-injection analysis mass-spectrometry (FIA-MS) method utilising a validated library of 400 metabolite standards was combined into four unique and defined screening pools in 150 mM ammonium acetate pH 7.4. For each metabolite pool, 8 μl of hsMTHFRCD-RD (542 μM) or hsMTHFRRD (240 μM) protein was arrayed in triplicate across a SWISSCI 10 MWC 96-well microdialysis plate (protein chambers). To the trans side of each dialysis well, 300 μl of a metabolite pool (50 μM per metabolite) was arrayed in triplicate for each target protein (metabolite chambers). Dialysis plates were placed in the dark at 4 °C on a rotating shaker (150 rev min−1) and incubated for 40 h. Post-dialysis, protein- and metabolite-chamber dialysates were normalized and diluted 1:10 in 80% methanol, incubated for 30 min on ice, and centrifuged at 3200 RCF for 15 min to remove precipitated protein. Metabolite pool analytes were arrayed across a 384-well microvolume plate and placed at 4 °C in a Shimadzu SIL-20ACXR autosampler for FIA-MS metabolomics analysis. 2 μl of each sample was analysed in technical triplicate by FIA-MS on a SCIEX X500R QTOF MS with interspersed injections of blanks.
FIA-MS spectra from MIDAS protein–metabolite interactomics was qualitatively and quantitatively processed in SCIEX OS 1.6 software to determine relative metabolite abundance by integrating the mean area under the extracted-ion chromatogram curve across technical triplicates. Log2 (fold change) for each metabolite was calculated from the relative metabolite abundance in the protein chamber (numerator) and metabolite chamber (denominator) from dialysis triplicates. For each technical triplicate, up to one outlier was removed using a z-score cutoff of five (<0.1% of observations). The corrected technical replicates were collapsed to one mean fold-change summary per protein–metabolite pair. To remove fold-change variation that was not specific to a given metabolite–protein pair, the first three principal components of the total MIDAS dataset were removed (∼75% of observed variance) creating Log2 (corrected fold change). Protein–metabolite z-scores were determined by comparing the target protein–metabolite Log2 (corrected fold change) to a no-signal model for that metabolite using measures of the central tendency (median) and standard deviation (extrapolated from the 25–75% quantiles) which are not biased by the signals in the tails of a metabolite’s fold-change distribution. Z-scores were controlled for false-discovery rate using Storey’s q value (http://github.com/jdstorey/qvalue). Protein–metabolite interactions with p-values < 0.05 and q-values < 0.1 were considered significant.

hsMTHFRRD [2] = biological target: T2, hsMTHFRRD (Homo sapiens, UniProt P42898); experiment: Differential scanning fluorimetry binding assay; details: up to 250 μM compound, 0.1 mg ml^−1 hsMTHFRRD
T2 construct: encompassing the RD and part of the linker region (amino acids 348–656; hsMTHFRRD); made in house
T2 sequence (P42898 348-656): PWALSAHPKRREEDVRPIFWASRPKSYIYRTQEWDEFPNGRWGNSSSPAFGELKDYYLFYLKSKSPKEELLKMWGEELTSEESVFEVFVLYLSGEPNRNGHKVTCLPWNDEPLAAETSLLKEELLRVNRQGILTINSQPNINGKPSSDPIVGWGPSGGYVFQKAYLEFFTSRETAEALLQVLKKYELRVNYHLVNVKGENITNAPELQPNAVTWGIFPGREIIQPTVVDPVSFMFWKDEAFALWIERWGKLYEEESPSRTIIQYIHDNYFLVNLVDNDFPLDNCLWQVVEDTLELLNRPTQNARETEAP
Experimental: Differential scanning fluorimetry was used to assay shifts in melting temperature caused by ligand binding in a 96-well PCR plate using an LC480 light cyler (Roche). Each well (20 μl) consisted of hsMTHFRRD protein (0.1 mg ml^−1), SYPRO-Orange (Invitrogen) diluted 1000X, and buffer (10 mM HEPES pH 7.5, 500 mM NaCl) in the presence of 0–250 μM AdoMet, AdoHcy or analogue compounds. Analogue compounds were part of a AdoMet library consisting of 162 synthetic analogues of adenosine scaffolds which were compiled from the SGC’s compound collection.

hsMTHFRCD-RD [3] = biological target: T1, hsMTHFRCD-RD; experiment: Surface plasmon resonance, CD-RD construct; assay type: binding; details: SPR, read-out: Kd (dissociation constant)
Experimental: (§2) For determination of the affinity between hsMTHFRCD-RD and (S)-SKI-72, 30 μg of hsMTHFRCD-RD was immobilized onto Sensor Chip CM5 sensor (series S) to a density of 7500 RU via the protein –NH2 groups employing 1-Ethyl-3-(3-dimethylaminoproppyl)carbodiimide crosslinker (EDC) and N-hydroxysuccinimide (NHS) in acetate buffer pH 4.0. For the binding experiment, (S)-SKI-72 was serially diluted (1:1) from 6.25 μM to 0.05 μM in 20 mM HEPES pH 7.5, 150 mM NaCl, 0.5 mM TCEP, 0.05% TWEEN-20, 5% DMSO and subsequently injected at a 30 μL/min flow rate over the sensor. […] For the binding experiment, (S)-SKI-72 was serially diluted from 12.5 μM to 0.012 μM and AdoMet was serially diluted from 25 μM to 0.19 μM and subsequently injected at a 30 μL/min flow rate over the sensor. Data were analysed using the Biacore S200 Evaluation Software.

[4] = set-up: method as in PMID 31657716; details: cited from earlier work
hsMTHFRRD [5] = biological target: T2, hsMTHFRRD; experiment: Surface plasmon resonance, regulatory domain; assay type: binding; details: SPR, steady state affinity fit, read-out: Kd (dissociation constant)
Experimental: as §2

hsMTHFRFL = biological target: T3, hsMTHFRFL (Homo sapiens, UniProt P42898); experiment: MTHFR enzyme activity assay (physiological forward assay), purified enzyme; assay type: biochemical; details: for Ki: four-parameter curve fit, n = 3
T3 construct: encompassing the full-length (amino acids 1–656; hsMTHFRFL); made in house
Experimental: (§3) All enzymatic assays were performed using the physiological forward assay described by Suormala et al.. For (S)-SKI-72 inhibition in […] (ATCC: CRL-3216) cell lysates, the assay was performed with the modifications described by Rummel et al. and Burda et al.. For (S)-SKI-73 inhibition of intact HEK293 cells, 300,000 cells/well of a 6-well plate were allowed to settle overnight. The next day, media containing Dulbecco’s Modified Eagle Medium (Gibco) supplemented with 10% fetal bovine serum (Gibco) and 1% antibiotic/antimycotic (Gibco) was exchanged to fresh media of the same composition plus the indicated concentration of (S)-SKI-73. Following incubation for 12 or 48 h, cells were harvested, lysed and assayed as previously described. Assay of hsMTHFRFL was performed as described. Purified AdoMet was used for inhibition. Sinefungin was purchased from Sigma-Aldrich (Cat# S8559). The Ki for each compound was estimated following a plot of inhibitor versus response and a four-parameter curve fit as performed by GraphPad Prism (v8.00).

[6] = biological target: T4, endogenous MTHFR from HEK293 cell lysate (Homo sapiens, UniProt P42898); experiment: MTHFR enzyme activity assay in HEK293 cell lysate; assay type: biochemical; details: for Ki: n = 3
T4 construct: Remaining activity of endogenous MTHFR from HEK293 cell lysate; host or cells: HEK293
Experimental: as §3

hsMTHFRRD [7] = biological target: T2, hsMTHFRRD; experiment: MIDAS protein-metabolite interactomics (equilibrium dialysis FIA-MS), regulatory domain alone; assay type: binding; details: Fig. 2C
Experimental: as §1, with “Post-dialysis, protein- and metabolite-chamber dialysates were normalized and diluted 1:10 in 80% methanol, incubated for 30 min on ice, and centrifuged at 3200 RCF for 15 min to remove precipitated protein. Metabolite pool analytes were arrayed across a 384-well microvolume plate and placed at 4 °C in a Shimadzu SIL-20ACXR autosampler for FIA-MS metabolomics analysis.” left out
FIA-MS spectra from MIDAS protein–metabolite interactomics was qualitatively and quantitatively processed in SCIEX OS 1.6 software to determine relative metabolite abundance by integrating the mean area under the extracted-ion chromatogram curve across technical triplicates. Log2 (fold change) for each metabolite was calculated from the relative metabolite abundance in the protein chamber (numerator) and metabolite chamber (denominator) from dialysis triplicates. […]

T3 sequence (P42898 whole entry, the tested form may be a part): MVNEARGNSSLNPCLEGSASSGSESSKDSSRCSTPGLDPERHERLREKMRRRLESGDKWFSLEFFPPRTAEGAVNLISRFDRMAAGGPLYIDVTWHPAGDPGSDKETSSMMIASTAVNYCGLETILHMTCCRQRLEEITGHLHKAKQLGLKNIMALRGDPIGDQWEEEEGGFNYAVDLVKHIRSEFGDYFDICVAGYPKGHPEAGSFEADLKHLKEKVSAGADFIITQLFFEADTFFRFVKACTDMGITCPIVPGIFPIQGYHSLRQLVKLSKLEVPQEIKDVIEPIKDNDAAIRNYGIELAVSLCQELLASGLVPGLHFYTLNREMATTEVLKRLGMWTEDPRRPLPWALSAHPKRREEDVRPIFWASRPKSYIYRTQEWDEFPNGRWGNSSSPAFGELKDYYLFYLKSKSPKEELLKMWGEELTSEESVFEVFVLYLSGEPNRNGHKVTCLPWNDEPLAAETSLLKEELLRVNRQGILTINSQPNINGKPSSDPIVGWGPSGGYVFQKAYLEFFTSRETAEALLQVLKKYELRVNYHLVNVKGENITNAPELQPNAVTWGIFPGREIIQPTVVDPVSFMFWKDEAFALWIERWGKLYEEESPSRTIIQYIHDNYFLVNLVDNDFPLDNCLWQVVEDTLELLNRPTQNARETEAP
T4 sequence (P42898 whole entry): as the sequence (P42898 whole entry, the tested form may be a part) above
T1 sequence (P42898 38-644): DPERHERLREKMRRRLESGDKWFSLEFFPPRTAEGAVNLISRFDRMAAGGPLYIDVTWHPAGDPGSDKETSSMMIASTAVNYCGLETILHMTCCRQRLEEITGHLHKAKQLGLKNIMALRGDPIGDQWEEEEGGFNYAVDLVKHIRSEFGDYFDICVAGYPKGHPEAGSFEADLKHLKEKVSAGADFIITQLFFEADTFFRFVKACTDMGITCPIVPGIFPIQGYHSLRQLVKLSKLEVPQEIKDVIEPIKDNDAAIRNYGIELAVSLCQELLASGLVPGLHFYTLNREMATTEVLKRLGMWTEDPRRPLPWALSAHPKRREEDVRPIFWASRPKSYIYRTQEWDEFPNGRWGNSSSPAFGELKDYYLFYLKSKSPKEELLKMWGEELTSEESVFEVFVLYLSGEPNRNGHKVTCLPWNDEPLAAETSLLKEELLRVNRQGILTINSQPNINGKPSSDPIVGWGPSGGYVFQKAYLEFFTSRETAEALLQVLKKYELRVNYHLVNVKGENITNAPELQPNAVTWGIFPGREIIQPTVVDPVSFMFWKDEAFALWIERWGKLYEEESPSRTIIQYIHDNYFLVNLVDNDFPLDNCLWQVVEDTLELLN

Q: For `Nc1nc2c(c(=O)[nH]1)N(C=O)C(CNc1ccc(C(=O)N[C@@H](CCC(=O)O)C(=O)O)cc1)CN2` (stereo partly shown) [5-FTHF, 5-formyltetrahydrofolate], which “MIDAS enrichment or depletion of metabolite” value (“MIDAS enrichment or depletion” below) (hsMTHFRCD-RD [1]) is on record?
A: enriched

Q: With `CN1c2c(nc(N)[nH]c2=O)NCC1CNc1ccc(C(=O)N[C@@H](CCC(=O)O)C(=O)O)cc1` (stereo partly shown) [5-MTHF, 5-methyltetrahydrofolate] as the compound, how does the “MIDAS enrichment or depletion” value (hsMTHFRCD-RD [1]) read?
A: depleted

Q: Which Tm shift (hsMTHFRRD [2]) does the source give for `COc1ccc(CCNC(=O)[C@@H](N)CC[C@H](CNCc2ccccc2)C[C@H]2O[C@@H](n3cnc4c(N)ncnc43)[C@H](O)[C@@H]2O)cc1` [(S)-SKI-72] here?
A: approximately 10 °C

Q: What about the Kd (hsMTHFRCD-RD [3]; as printed in Fig. 3A) of the same compound?
A: 0.6 µM

Q: And the Kd (hsMTHFRCD-RD [3]; steady state affinity fit)?
A: 0.612 µM and 0.596 µM

Q: And the membrane permeability [4]?
A: poor

Q: And the Kd (hsMTHFRRD [5])?
A: 1.47 µM and 1.17 µM and 1.5 µM

Q: What about the “residual activity at high concentrations” value (hsMTHFRFL; purified hsMTHFRFL, even at high concentrations) of the same compound?
A: ~30%

Q: What about the Ki (hsMTHFRFL; purified hsMTHFRFL) of the same compound?
A: 0.78 ± 0.05 µM

Q: What about the “residual activity at the highest concentrations tested” value [6] of the same compound?
A: approximately 50%

Q: What about the Ki [6] of the same compound?
A: 3 ± 0.2 µM

Q: For `Nc1ncnc2c1ncn2[C@@H]1O[C@H](CSCC[C@H](N)C(=O)O)[C@@H](O)[C@H]1O` [AdoHcy, S-adenosylhomocysteine], which Tm shift (hsMTHFRRD [2]) is on record?
A: ~7 °C

Q: And the “MIDAS enrichment or depletion” value (hsMTHFRRD [7])?
A: enriched

Q: And the “MIDAS enrichment or depletion” value (hsMTHFRCD-RD [1])?
A: enriched

Q: Which Tm shift (hsMTHFRRD [2]) does the source give for `C[S+](CC[C@H](N)C(=O)[O-])C[C@H]1O[C@@H](n2cnc3c(N)ncnc32)[C@H](O)[C@@H]1O` (stereo partly shown) [AdoMet, S-adenosylmethionine] here?
A: approximately 4 °C

Q: What about the “MIDAS enrichment or depletion” value (hsMTHFRRD [7]) of the same compound?
A: enriched

Q: And the Kd (hsMTHFRRD [5])?
A: 4.3 µM and 1.06 µM

Q: And the Ki (hsMTHFRFL; purified hsMTHFRFL)?
A: 5.8 ± 0.2 µM

Q: What about the “MIDAS enrichment or depletion” value (hsMTHFRCD-RD [1]) of the same compound?
A: enriched

Q: What about the Ki [6] of the same compound?
A: 8.2 µM and 6.8 µM

Q: Which “MIDAS enrichment or depletion” value (hsMTHFRCD-RD [1]) does the source give for `Cc1cc2nc3c(=O)[nH]c(=O)nc-3n(C[C@H](O)[C@H](O)[C@H](O)COP(=O)(O)OP(=O)(O)OC[C@H]3O[C@@H](n4cnc5c(N)ncnc54)[C@H](O)[C@@H]3O)c2cc1C` [FAD, flavin adenine dinucleotide] here?
A: enriched

Q: For `NC(=O)C1=CN([C@@H]2O[C@H](COP(=O)(O)OP(=O)(O)OC[C@H]3O[C@@H](n4cnc5c(N)ncnc54)[C@H](O)[C@@H]3O)[C@@H](O)[C@H]2O)C=CC1` [NADH], which “MIDAS enrichment or depletion” value (hsMTHFRCD-RD [1]) is on record?
A: depleted

Q: For `NC(=O)C1=CN([C@@H]2O[C@H](COP(=O)(O)OP(=O)(O)OC[C@H]3O[C@@H](n4cnc5c(N)ncnc54)[C@H](OP(=O)(O)O)[C@@H]3O)[C@@H](O)[C@H]2O)C=CC1` [NADPH], which “MIDAS enrichment or depletion” value (hsMTHFRCD-RD [1]) is on record?
A: depleted

Q: Which “effect on the activity of hsMTHFRFL” value (hsMTHFRFL; concentrations up to ∼100 μM, above that appeared to inhibit) does the source give for `Nc1ncnc2c1ncn2[C@@H]1O[C@H](C[C@@H](N)CC[C@H](N)C(=O)O)[C@@H](O)[C@H]1O` [Sinefungin, sinefungin] here?
A: no effect

Q: With `Nc1nc(=O)c2nc(CNc3ccc(C(=O)N[C@@H](CCC(=O)O)C(=O)O)cc3)cnc2[nH]1` [folate] as the compound, how does the “MIDAS enrichment or depletion” value (hsMTHFRCD-RD [1]) read?
A: enriched
